Molecules are shown by their SMILES.

Broadly, the IC50 is the midpoint of a concentration-inhibition curve.

One test addresses human Cav3.3 (Homo sapiens (Human), UniProt Q9P0X4). The experiment in a line: T-type calcium channel inhibitory activity, whole-cell patch-clamp with HEK293 cell. The class given is cell-based. Particulars: for IC50: dose-reactive test, read-out: Cav3.3 IC50 (parenthesized). As for the experimental part:
(§1) The inhibitory activity of the present compounds for T-type calcium channel was measured by whole-cell patch-clamp method with HEK293 cell (vendor of HEK 293 cell: ATCC, Manassas, Va., USA, builder of expressing cell: ChanTest Corporation., Cleveland, Ohio, USA), in which human Cav3.1, human Cav3.2, or human Cav3.3 is expressed. The culture medium used for HEK293 cell was prepared by adding fetal bovine serum (10%), sodium penicillin G (100 U/mL), streptomycin sulfate (100 μg/mL), and G418 (500 μg/mL) to a mixture medium of Dulbecco's modified Eagle's medium/Ham's F-12 medium. The whole-cell current was evaluated with IonWorks Barracuda system and Population Patch Clamp (both are provided by Molecular Device Corporation, Union City, Calif., USA). The extracellular recording solution used during the recording was Hanks' balanced salt solution. The internal recording solution used herein was 50 mmol/L CsCl, 90 mmol/L CsF, 5 mmol/L MgCl2, 1 mmol/L glycol ether diamine tetraacetic acid (EGTA), and 10 mmol/L 4-(2-hydroxyethyl)piperazine-1-ethanesulfonic acid (HEPES (pH 7.2). The holding voltage was held at −90 mV, then changed to −65 mV. 60 seconds later, −20 mV pulse was added thereto for 200 millisecond to activate the channel on plasma membrane and generate calcium current. The calcium current was recorded with an amplifier of IonWorks Barracuda system, and analyzed with a program of the system (Version 2.0.2). The record of the calcium current was obtained twice, before and after the addition of the compound. In the measurement after adding the compound, the cells were exposed to the recording solution containing the compound for more than 5 minutes and then the current was measured. In the analyses, the ratio of current readout after the compound addition per current readout before the compound addition was calculated, the calculated value was subtracted from one, and the obtained value was converted to percentage. […] The value obtained from each compound was canonicalized based on the two ends of values to obtain each inhibitory rate. The positive control compound used herein was TTA-A2 which is known as T-type calcium channel inhibitor. IC50 value was calculated with Hill equation.
(§2) Each inhibitory rate (%) against T-type calcium channel at the evaluation concentration of the present compound (600 μmol/L) is shown in Table 12, in which the parenthesized values are IC50 values (μmol/L)) calculated from the dose-reactive test.
A general note: In patch-clamp work, channel activity is measured electrically.

The next test deals with human Cav3.1 (Homo sapiens (Human), UniProt O43497). The description is as above. The test is classed as cell-based. Particulars: for IC50: dose-reactive test, read-out: Cav3.1 IC50 (parenthesized). The protocol: as §1, §2
The next test concerns the target human Cav3.2 (Homo sapiens (Human), UniProt O95180). The test is described as above. The class given is cell-based. Particulars: for IC50: dose-reactive test, read-out: Cav3.2 IC50 (parenthesized). As for the experimental part: as §1, §2
Test [1] concerns levodopa-induced dyskinesia in 6-OHDA unilateral lesion model. In words: Effect for inhibiting levodopa-induced dyskinesia. The class given is in vivo, rat. Particulars: Examples 30 or 100 mg/kg, rasagiline 0.2 or 0.6 mg/kg, daily for two weeks. From the text:
A unilateral lesion model of nigrostriatal dopamine neuron induced with 6-hydroxydopamine (6-OHDA) is broadly used for evaluating the drug efficacy for treating Parkinson's disease, as mentioned in Test 2. In addition, it is known that dyskinesia is developed when the present model receives repetitive administration of levodopa, which is similar to the phenomenon that patients of Parkinson's disease who have received long-term administration of levodopa develop dyskinesia. With the present model, the effect of the present compound on the dyskinesia induced by repetitive administration of levodopa was evaluated. As shown in Test 2, a unilateral lesion model of nigrostriatal dopamine neuron was prepared. One day before starting the repetitive administration of levodopa, levodopa methyl ester hydrochloride (5.86 mg/kg) containing benserazide hydrochloride ([…]) (whose ratio was 4:1 in terms of free form) was intraperitoneally administered to the model, and the rotational behavior of the model was observed from 20 minutes to 140 minutes after the administration. The models were classified considering three factors of the total rotation number (20-140 minutes after the administration), the later term of the rotation (120-140 minutes after the administration), and the rotational duration, so that the dispersion of each group could be equal. Two days after the classification, the repetitive administration of levodopa methyl ester hydrochloride (6 mg/kg) and benserazide hydrochloride (12 mg/kg) once a day for two weeks was started. […] The evaluation of dyskinesia was done after one week and two weeks of the repetitive administration. […]

Test [2] has as its system tacrine-induced Parkinson's disease tremor model. In words: Anti-tremor effect in tacrine-induced Parkinson's disease tremor model. The settings on record: Example 1 10-100 mg/kg, Example 13 3-100 mg/kg oral; tacrine 2.5 mg/kg i.p.; counted 10 minutes. The class given is in vivo, rat. From the text:
One of the causes of tremor in Parkinson's disease is thought to be a decrease of intracerebral dopamine content, said decrease can hyper-activate the cholinergic nervous system in a counteractive manner to cause the symptom. In the present model, an acetylcholinesterase inhibitor activates the cholinergic nervous system, which breaks down the balance between intracerebral dopamine and acetylcholine to initiate a tremor symptom. Thus, the model is well known as a drug-induced model suffering from tremor in Parkinson's disease. With the present model, the effect of the present compound for inhibiting the tremor in Parkinson's disease was evaluated.
In the present test, male Slc: SD rats (Japan SLC, Inc.) were used. The present compound (Example 1 (10 mg/kg, 30 mg/kg, or 100 mg/kg), Example 13 (3 mg/kg, 10 mg/kg, 30 mg/kg, or 100 mg/kg)) was orally administered to the rat. One hour later, tacrine (2.5 mg/kg) was intraperitoneally administered to the rat. Ten minutes after the administration of tacrine, the number of tremulous jaw movements was counted for 10 minutes.

human Cav3.2, sequence (O95180 whole entry): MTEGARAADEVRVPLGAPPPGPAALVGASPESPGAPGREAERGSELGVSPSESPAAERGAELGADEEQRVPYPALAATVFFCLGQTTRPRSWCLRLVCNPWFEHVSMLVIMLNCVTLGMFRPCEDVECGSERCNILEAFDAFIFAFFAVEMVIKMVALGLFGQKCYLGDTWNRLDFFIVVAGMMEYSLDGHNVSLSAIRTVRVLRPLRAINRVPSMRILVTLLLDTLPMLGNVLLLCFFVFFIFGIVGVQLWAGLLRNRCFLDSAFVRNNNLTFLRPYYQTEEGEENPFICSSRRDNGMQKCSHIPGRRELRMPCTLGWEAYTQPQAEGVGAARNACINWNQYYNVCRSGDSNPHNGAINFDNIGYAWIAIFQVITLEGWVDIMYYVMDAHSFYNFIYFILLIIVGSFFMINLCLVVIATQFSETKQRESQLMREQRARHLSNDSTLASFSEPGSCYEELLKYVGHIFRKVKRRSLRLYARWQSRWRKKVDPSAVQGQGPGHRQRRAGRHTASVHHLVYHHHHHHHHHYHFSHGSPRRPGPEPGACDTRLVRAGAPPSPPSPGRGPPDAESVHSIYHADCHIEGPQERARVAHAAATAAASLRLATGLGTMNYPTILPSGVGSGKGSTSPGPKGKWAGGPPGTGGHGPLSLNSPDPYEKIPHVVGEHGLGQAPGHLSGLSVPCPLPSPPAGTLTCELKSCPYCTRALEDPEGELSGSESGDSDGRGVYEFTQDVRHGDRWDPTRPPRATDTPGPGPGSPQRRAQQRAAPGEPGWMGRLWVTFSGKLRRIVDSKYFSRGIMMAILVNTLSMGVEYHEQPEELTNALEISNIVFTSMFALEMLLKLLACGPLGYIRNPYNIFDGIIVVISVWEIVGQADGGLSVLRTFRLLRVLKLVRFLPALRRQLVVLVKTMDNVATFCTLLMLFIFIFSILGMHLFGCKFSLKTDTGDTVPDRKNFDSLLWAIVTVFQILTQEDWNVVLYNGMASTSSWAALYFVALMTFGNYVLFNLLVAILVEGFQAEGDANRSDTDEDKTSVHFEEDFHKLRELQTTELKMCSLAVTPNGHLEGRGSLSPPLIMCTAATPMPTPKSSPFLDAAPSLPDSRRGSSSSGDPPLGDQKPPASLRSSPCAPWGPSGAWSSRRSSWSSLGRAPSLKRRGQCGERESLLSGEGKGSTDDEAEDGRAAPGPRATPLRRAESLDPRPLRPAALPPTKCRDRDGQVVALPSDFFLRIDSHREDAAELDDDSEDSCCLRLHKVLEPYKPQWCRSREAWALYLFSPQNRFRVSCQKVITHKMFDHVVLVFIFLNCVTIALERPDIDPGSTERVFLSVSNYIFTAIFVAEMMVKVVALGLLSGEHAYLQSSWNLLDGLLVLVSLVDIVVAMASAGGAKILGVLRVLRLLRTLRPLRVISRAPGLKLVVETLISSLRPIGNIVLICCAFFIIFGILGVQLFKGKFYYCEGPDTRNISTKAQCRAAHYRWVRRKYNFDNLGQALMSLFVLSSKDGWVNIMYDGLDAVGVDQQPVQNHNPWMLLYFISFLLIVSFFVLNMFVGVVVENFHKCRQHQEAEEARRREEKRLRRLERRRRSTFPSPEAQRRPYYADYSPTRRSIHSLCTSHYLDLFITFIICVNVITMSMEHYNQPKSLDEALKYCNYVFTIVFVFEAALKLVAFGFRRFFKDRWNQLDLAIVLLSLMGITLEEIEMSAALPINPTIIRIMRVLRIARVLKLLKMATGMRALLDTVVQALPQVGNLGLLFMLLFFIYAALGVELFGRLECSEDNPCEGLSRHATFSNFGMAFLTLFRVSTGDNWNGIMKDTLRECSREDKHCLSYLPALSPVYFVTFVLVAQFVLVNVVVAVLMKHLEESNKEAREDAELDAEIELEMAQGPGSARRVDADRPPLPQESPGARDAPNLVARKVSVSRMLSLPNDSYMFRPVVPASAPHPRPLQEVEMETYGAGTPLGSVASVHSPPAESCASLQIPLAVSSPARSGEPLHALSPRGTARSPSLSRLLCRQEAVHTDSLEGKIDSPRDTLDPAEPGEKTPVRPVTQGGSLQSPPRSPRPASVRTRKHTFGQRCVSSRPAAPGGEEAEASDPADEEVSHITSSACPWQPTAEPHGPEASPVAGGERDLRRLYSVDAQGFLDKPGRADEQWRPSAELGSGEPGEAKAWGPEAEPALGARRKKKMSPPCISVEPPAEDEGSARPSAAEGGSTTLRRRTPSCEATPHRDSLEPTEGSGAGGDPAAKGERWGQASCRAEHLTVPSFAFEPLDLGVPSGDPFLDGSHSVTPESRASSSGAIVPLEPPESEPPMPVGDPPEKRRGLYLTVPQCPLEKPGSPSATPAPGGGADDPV
human Cav3.3, sequence (Q9P0X4 whole entry): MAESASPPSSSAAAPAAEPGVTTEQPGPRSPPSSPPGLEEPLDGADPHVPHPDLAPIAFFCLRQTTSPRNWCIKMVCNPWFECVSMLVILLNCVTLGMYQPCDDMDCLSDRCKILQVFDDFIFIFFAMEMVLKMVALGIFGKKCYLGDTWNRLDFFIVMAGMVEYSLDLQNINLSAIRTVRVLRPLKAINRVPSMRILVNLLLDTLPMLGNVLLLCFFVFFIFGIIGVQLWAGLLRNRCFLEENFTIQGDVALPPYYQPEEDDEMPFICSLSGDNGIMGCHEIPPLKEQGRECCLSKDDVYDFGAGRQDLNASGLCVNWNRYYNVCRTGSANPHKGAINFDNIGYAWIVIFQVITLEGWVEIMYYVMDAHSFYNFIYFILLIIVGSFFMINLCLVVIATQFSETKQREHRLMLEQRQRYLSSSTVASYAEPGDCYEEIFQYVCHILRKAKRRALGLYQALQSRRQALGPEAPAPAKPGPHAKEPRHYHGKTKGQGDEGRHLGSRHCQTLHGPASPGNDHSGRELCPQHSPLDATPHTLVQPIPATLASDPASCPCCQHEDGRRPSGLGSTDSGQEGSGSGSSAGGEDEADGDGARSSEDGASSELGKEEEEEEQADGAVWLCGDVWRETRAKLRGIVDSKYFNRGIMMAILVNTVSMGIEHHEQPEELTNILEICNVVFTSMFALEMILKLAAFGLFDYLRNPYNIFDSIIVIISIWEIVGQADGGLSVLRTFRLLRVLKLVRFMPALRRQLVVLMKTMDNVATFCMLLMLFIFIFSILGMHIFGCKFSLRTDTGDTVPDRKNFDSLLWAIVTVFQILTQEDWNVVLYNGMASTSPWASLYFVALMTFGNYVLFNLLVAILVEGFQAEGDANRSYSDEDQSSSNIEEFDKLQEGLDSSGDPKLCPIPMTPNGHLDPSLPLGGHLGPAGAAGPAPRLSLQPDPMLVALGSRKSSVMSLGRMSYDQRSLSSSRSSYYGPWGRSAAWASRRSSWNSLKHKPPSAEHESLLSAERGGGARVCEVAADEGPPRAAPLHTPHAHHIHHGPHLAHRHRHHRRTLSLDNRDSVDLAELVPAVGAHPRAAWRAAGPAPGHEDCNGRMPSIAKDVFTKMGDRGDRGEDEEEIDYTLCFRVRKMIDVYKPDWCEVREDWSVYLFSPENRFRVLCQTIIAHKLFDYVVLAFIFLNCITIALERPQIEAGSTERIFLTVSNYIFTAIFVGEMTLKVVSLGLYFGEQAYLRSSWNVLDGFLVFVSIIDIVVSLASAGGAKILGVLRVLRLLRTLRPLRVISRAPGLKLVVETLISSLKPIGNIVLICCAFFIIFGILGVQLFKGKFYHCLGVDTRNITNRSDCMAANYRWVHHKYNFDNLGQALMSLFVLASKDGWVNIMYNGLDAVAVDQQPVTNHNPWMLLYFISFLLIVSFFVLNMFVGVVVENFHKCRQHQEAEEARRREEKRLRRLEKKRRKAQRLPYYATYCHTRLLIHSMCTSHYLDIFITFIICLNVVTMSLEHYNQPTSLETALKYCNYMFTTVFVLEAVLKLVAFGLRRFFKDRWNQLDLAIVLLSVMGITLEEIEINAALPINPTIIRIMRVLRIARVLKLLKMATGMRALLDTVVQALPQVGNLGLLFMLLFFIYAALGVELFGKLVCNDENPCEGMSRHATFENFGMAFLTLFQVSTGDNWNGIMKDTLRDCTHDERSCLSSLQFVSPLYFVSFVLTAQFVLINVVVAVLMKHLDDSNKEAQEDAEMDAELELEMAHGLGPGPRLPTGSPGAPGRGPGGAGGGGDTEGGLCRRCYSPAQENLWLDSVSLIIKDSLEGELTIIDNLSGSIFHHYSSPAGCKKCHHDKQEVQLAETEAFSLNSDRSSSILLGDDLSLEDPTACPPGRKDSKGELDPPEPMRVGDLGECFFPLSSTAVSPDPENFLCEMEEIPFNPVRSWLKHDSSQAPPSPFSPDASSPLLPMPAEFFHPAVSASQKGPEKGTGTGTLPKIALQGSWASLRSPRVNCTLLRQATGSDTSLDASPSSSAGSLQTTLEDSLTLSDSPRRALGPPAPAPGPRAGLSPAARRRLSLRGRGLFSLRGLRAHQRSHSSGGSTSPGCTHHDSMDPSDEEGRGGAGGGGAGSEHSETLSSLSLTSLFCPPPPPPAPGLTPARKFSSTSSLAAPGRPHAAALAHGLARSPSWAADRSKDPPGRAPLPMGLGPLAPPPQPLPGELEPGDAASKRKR

Consider `C[C@H](c1noc2ccccc12)S(N)(=O)=O` [Example 13, (1R)-1-(1,2-benzoxazol-3-yl)ethane-1-sulfonamide], for which the inhibition at 600 µM at human Cav3.3 (HEK293, 600 μmol/L, read-out: Cav3.3 % inhibitory rate) came out at 39.9%; at human Cav3.1 (HEK293, 600 μmol/L, read-out: Cav3.1 % inhibitory rate), 50.9%; at human Cav3.2 (HEK293, 600 μmol/L, read-out: Cav3.2 % inhibitory rate) it was 42.6%. Besides, the IC50 at human Cav3.3 is 746 µM; on human Cav3.1, 465 µM; at human Cav3.2, 713 µM. The “dyskinesia induced by repetitive administration of levodopa (AIMS score)” value in test [1] is on record as “the onset of dyskinesia induced by repetitive administration of levodopa was inhibited”. In test [2], the “number of tremulous jaw movements” value is “significantly decreased the number of tremulous jaw movements per unit time”.

As for `CC(c1noc2ccccc12)S(N)(=O)=O` (stereo not shown) [Example 1, 1-(Benzo[d]isoxazol-3-yl)ethane-1-sulfonamide], the “Cav3.3 % inhibitory rate” value at human Cav3.3 (600 μmol/L) is given as 30.7%. The IC50 on human Cav3.3 is 922 µM; on human Cav3.1, 449 µM; on human Cav3.2, 848 µM. At human Cav3.1 (600 μmol/L), the “Cav3.1 % inhibitory rate” value was 46.0%. Moreover, the “Cav3.2 % inhibitory rate” value on human Cav3.2 (600 μmol/L) is 33.0%. In addition, the “dyskinesia induced by repetitive administration of levodopa (AIMS score)” value in test [1] is given as “the onset of dyskinesia induced by repetitive administration of levodopa was inhibited”. Moreover, the “number of tremulous jaw movements” value in test [2] was “significantly decreased the number of tremulous jaw movements per unit time”.

(Values after US11535599B2, “Benzisoxazole derivative” (Sumitomo Pharma Co., Ltd., priority 2020, dated 2022).)
